Data reported in patent US20230072421A1, “TARGETED RADIOPHARMACEUTICALS FOR THE DIAGNOSIS AND TREATMENT OF PROSTATE CANCER” (Bayer AS, priority 2019, published 2023).

Experiments:
[1] = molecular target: T1, PSMA-expressing LNCaP cells (Homo sapiens, UniProt Q04609); assay: Binding competition assay against 3H-PSMA-617 on LNCaP cells; conditions: for remaining activity at 0.01 µM / remaining activity at 0.1 µM / % remaining 3H-PSMA-617 @ 10 nM (mean) / % remaining 3H-PSMA-617 @ 100 nM (mean): LNCaP cells, 10 nM 3H-PSMA-617, 2 h at 37° C., triplicates; for remaining activity at 0.01 µM / % remaining 3H-PSMA-617 @ 10 nM (mean): competing non-radiolabeled compound 10 nM; for remaining activity at 0.1 µM / % remaining 3H-PSMA-617 @ 100 nM (mean): competing non-radiolabeled compound 100 nM; for competition against 3H-PSMA-617 on PSMA-expressing LNCaP cells (in words): comparison between examples
T1 construct: PSMA-expressing LNCaP cells; endogenous in cells; host or cells: LNCaP
Method in brief: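 Compounds added to LNCaP cells in growth medium, 2 h at 37 °C, 5% CO2. After two ice-cold PBS washes, cells lysed in 0.3 M NaOH and bound radioactivity measured by liquid scintillation counting.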

[2] = test system: VCap, C4-2, 22Rv1 and LnCap cells; assay: Cell proliferation assay, summary statements over several cell lines; format: cell-based; conditions: for antiproliferative activity on VCap, C4-2, 22Rv1 and LnCap cells (in words): 227Th-labelled compounds bearing the HOPO chelator Example A
Method: Inhibition of cell proliferation of Thorium-227 labeled PMSA SMOL ligands was tested different prostate cancer cell lines, namely 22Rv1, VCaP, C4-2 (all from ATCC, Manassas, Va., USA) and LNCaP (DMSZ, Braunschweig). Cells were seeded using the following conditions in 384 well plates (Corning) in 30 μl of growth media at 4000 cells/well for VCaP cells and 1000 cells/well for 22Rv1, C4-2 and LNCaP cells.
Cells were cultivated an incubator at 37° C. and 5% C02 over night. […] In sister plates cell viability at treatment start (d=0) was determined using CellTiter-Glo® assay (CTG, Promega, Madison, Wis., USA), by adding 30 μl per well CTG solution, incubation for 10 min and reading of Luminescence in a PheraStarFSX instrument (BMG Labtech). After a 5-day exposure in the presenced of test compounds, cell viability of treated or untreated control cells was determined again using CellTiter-Glo® assay (Promega, Madison, Wis., USA). […] The DRC software is a Biobook Spreadsheet that was developed by Bayer AG and Bayer Business Services on the IDBS E-Workbook Suite platform (IDBS: ID Business Solutions Ltd., Guildford, UK).

[3] = test system: LNCaP human prostate cancer cells; assay: LNCaP xenograft efficacy study (T/C tumor area); format: in vivo, SCID mice; conditions: Example III; day 64 after start of therapy; single treatment 1.5 MBq/kg
Method in brief: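 SCID mice with testosterone pellet bearing s.c. flank LNCaP xenografts (5×10^6 cells in Matrigel) were treated i.v. with a defined radioactive dose once tumors reached 35-50 mm^2 (n=10/group). Tumor area (caliper, longest diameter × perpendicular) measured 2-3× weekly; T/C ratio calculated from tumor areas when vehicle group closed.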

T1 sequence (Q04609 whole entry): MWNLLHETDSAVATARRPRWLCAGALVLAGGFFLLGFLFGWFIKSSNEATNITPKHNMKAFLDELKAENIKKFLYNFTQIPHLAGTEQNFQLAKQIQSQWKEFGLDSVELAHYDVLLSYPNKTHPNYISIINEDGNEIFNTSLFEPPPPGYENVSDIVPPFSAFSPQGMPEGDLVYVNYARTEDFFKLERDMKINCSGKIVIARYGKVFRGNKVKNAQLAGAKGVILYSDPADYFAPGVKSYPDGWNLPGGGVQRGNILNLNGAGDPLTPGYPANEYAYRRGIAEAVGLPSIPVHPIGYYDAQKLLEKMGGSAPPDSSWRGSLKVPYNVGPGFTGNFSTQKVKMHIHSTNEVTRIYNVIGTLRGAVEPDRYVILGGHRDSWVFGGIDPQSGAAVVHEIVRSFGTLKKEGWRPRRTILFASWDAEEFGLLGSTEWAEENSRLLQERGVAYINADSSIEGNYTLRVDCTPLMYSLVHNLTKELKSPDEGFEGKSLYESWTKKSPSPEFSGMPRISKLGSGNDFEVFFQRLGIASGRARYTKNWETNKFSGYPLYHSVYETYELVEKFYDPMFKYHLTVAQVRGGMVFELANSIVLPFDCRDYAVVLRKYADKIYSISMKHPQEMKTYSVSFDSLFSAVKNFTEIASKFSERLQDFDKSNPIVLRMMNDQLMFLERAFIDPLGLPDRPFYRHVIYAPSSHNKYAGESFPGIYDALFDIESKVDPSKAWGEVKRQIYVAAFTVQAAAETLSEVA

Structure (SMILES) | remaining activity at 0.01 µM [1] | remaining activity at 0.1 µM [1] | competition against 3H-PSMA-617 on PSMA-expressing LNCaP cells (in words) [1] | antiproliferative activity on VCap, C4-2, 22Rv1 and LnCap cells (in words) [2] | % remaining 3H-PSMA-617 @ 10 nM (mean) [1] | % remaining 3H-PSMA-617 @ 100 nM (mean) [1] | T/Carea [3] | antiproliferative activity on VCap and C4-2 cells (in words) ([2]; 227Th-labelled compounds, in comparison to 227Th-labelled examples 1-C monomer, dimer, trimer and tetramer)
CNc1cc(CC(NC(=O)C2CCC(CNC(=O)Cn3c(C)cc(C(=O)NCCN(CCCN(CCNC(=O)c4cc(C)n(CC(=O)O)c(=O)c4O)CCNC(=O)c4cc(C)n(CC(=O)NCC5CCC(C(=O)NC(Cc6cc(NC)c7ccccc7c6)C(=O)NCCCCC(NC(=O)NC(CCC(=O)O)C(=O)O)C(=O)O)CC5)c(=O)c4O)CCNC(=O)c4cc(C)n(CC(=O)O)c(=O)c4O)c(O)c3=O)CC2)C(=O)NCCCCC(NC(=O)NC(CCC(=O)O)C(=O)O)C(=O)O)cc2ccccc12 (stereo not drawn) [37-C dimer] | – | – | – | high antiproliferative activity | 64% | 13% | – | –
Cc1cc(C(=O)NCCN(CCCN(CCNC(=O)c2cc(C)n(CC(=O)NCc3ccc(C(=O)N[C@@H](Cc4ccc5ccccc5n4)C(=O)NCCCC[C@H](NC(=O)N[C@@H](CCC(=O)O)C(=O)O)C(=O)O)nc3)c(=O)c2O)CCNC(=O)c2cc(C)n(CC(=O)NCc3ccc(C(=O)N[C@@H](Cc4ccc5ccccc5n4)C(=O)NCCCC[C@H](NC(=O)N[C@@H](CCC(=O)O)C(=O)O)C(=O)O)nc3)c(=O)c2O)CCNC(=O)c2cc(C)n(CC(=O)NCc3ccc(C(=O)N[C@@H](Cc4ccc5ccccc5n4)C(=O)NCCCC[C@H](NC(=O)N[C@@H](CCC(=O)O)C(=O)O)C(=O)O)nc3)c(=O)c2O)c(O)c(=O)n1CC(=O)NCc1ccc(C(=O)N[C@@H](Cc2ccc3ccccc3n2)C(=O)NCCCC[C@H](NC(=O)N[C@@H](CCC(=O)O)C(=O)O)C(=O)O)nc1 [34-C tetramer] | 73% | 14% | – | high antiproliferative activity | – | – | – | improved antiproliferative activity
Cc1cc(C(=O)NCCN(CCCN(CCNC(=O)c2cc(C)n(CC(=O)O)c(=O)c2O)CCNC(=O)c2cc(C)n(CC(=O)NC[C@H]3CC[C@H](C(=O)N[C@@H](Cc4ccc5ccccc5c4)C(=O)NCCCC[C@H](NC(=O)N[C@@H](CCC(=O)O)C(=O)O)C(=O)O)CC3)c(=O)c2O)CCNC(=O)c2cc(C)n(CC(=O)NC[C@H]3CC[C@H](C(=O)N[C@@H](Cc4ccc5ccccc5c4)C(=O)NCCCC[C@H](NC(=O)N[C@@H](CCC(=O)O)C(=O)O)C(=O)O)CC3)c(=O)c2O)c(O)c(=O)n1CC(=O)O [1-C dimer, (3S,10S,14S,3'S,10'S,14'S)-1,1′-(propane-1,3-diylbis{[(2-{[1-(carboxymethyl)-3-hydroxy-6-methyl-2-oxo-1,2-dihydropyridine-4-carbonyl]amino}ethyl)azanediyl]ethane-2,1-diylcarbamoyl(3-hydroxy-6-methyl-2-oxopyridine-4,1(2H)-diyl)(1-oxoethane-2,1-diyl)azanediylmethylene(1r,4S)cyclohexane-4,1-diyl})bis{3-[(naphthalen-2-yl)methyl]-1,4,12-trioxo-2,5,11,13-tetraazahexadecane-10,14,16-tricarboxylic acid}] | – | – | improved competition | high antiproliferative activity | 39% | 5% | – | –

Second part, led by results:

remaining activity at 0.01 µM [1] | remaining activity at 0.1 µM [1] | competition against 3H-PSMA-617 on PSMA-expressing LNCaP cells (in words) [1] | Structure (SMILES) | antiproliferative activity on VCap, C4-2, 22Rv1 and LnCap cells (in words) [2] | % remaining 3H-PSMA-617 @ 10 nM (mean) [1] | % remaining 3H-PSMA-617 @ 100 nM (mean) [1] | T/Carea [3] | antiproliferative activity on VCap and C4-2 cells (in words) ([2]; 227Th-labelled compounds, in comparison to 227Th-labelled examples 1-C monomer, dimer, trimer and tetramer)
45% | 9% | improved competition | Cc1cc(C(=O)NCCN(CCCN(CCNC(=O)c2cc(C)n(CC(=O)NC[C@H]3CC[C@H](C(=O)N[C@@H](Cc4ccc5ccccc5c4)C(=O)NCCCC[C@H](NC(=O)N[C@@H](CCC(=O)O)C(=O)O)C(=O)O)CC3)c(=O)c2O)CCNC(=O)c2cc(C)n(CC(=O)NC[C@H]3CC[C@H](C(=O)N[C@@H](Cc4ccc5ccccc5c4)C(=O)NCCCC[C@H](NC(=O)N[C@@H](CCC(=O)O)C(=O)O)C(=O)O)CC3)c(=O)c2O)CCNC(=O)c2cc(C)n(CC(=O)NC[C@H]3CC[C@H](C(=O)N[C@@H](Cc4ccc5ccccc5c4)C(=O)NCCCC[C@H](NC(=O)N[C@@H](CCC(=O)O)C(=O)O)C(=O)O)CC3)c(=O)c2O)c(O)c(=O)n1CC(=O)O [1-C trimer] | high antiproliferative activity | – | – | – | –
32% | 5% | improved competition | Cc1cc(C(=O)NCCN(CCCN(CCNC(=O)c2cc(C)n(CC(=O)O)c(=O)c2O)CCNC(=O)c2cc(C)n(CC(=O)NC[C@H]3CC[C@H](C(=O)N[C@@H](Cc4ccc5ccccc5c4)C(=O)NCCCC[C@H](NC(=O)N[C@@H](CCC(=O)O)C(=O)O)C(=O)O)CC3)c(=O)c2O)CCNC(=O)c2cc(C)n(CC(=O)O)c(=O)c2O)c(O)c(=O)n1CC(=O)O [Example 1-C Monomer] | high antiproliferative activity | – | – | – | –
59% | 7% | improved competition | Cc1cc(C(=O)NCCN(CCCN(CCNC(=O)c2cc(C)n(CC(=O)NC[C@H]3CC[C@H](C(=O)N[C@@H](Cc4ccc5ccccc5c4)C(=O)NCCCC[C@H](NC(=O)N[C@@H](CCC(=O)O)C(=O)O)C(=O)O)CC3)c(=O)c2O)CCNC(=O)c2cc(C)n(CC(=O)NC[C@H]3CC[C@H](C(=O)N[C@@H](Cc4ccc5ccccc5c4)C(=O)NCCCC[C@H](NC(=O)N[C@@H](CCC(=O)O)C(=O)O)C(=O)O)CC3)c(=O)c2O)CCNC(=O)c2cc(C)n(CC(=O)NC[C@H]3CC[C@H](C(=O)N[C@@H](Cc4ccc5ccccc5c4)C(=O)NCCCC[C@H](NC(=O)N[C@@H](CCC(=O)O)C(=O)O)C(=O)O)CC3)c(=O)c2O)c(O)c(=O)n1CC(=O)NC[C@H]1CC[C@H](C(=O)N[C@@H](Cc2ccc3ccccc3c2)C(=O)NCCCC[C@H](NC(=O)N[C@@H](CCC(=O)O)C(=O)O)C(=O)O)CC1 [1-C tetramer] | high antiproliferative activity | – | – | 0.36 | –
